These results are taken from US20150368617A1, “METHOD FOR FORMING ENDOTHELIAL CELLS” (Korea Advanced Institute of Science and Technology (KAIST), priority 2012, published 2015).

One test concerns ICAM2+ ECs. Briefly: Apoptosis assay (Annexin V/PI) in ICAM2+ ECs. In kind it is cell-based, mouse. On the procedure:
FIGS. 15A-15D. ROCK suppression continuously promotes the expansion of ECs. ICAM2+ ECs were further incubated with PBS (Control), Y27632 (10┌ M), VEGF-A (50 ng/ml; VA) or Y27632 (10┌ M) plus VEGF-A (50 ng/ml) for 2 days, and analyses were performed at day 8.5. (FIG. 15A) Representative FACS analysis showing cell cycle in ICAM2+ ECs at 12 hrs. (FIG. 15B) % of ICAM2+ ECs under each phase of cell cycle at 12 hrs. Each group, n=3. *p<0.01 versus Control; ^#p<0.01 versus VEGF-A. (FIG. 15C) Representative FACS analysis of Annexin V+/PI− apoptotic ECs. (FIG. 15D) % of Annexin V+/PI− ECs. Each group, n=3. *p<0.01 versus Control.
Apoptosis assay was performed as previously described. To determine the cell cycle, BrdU/7-AAD cell cycle analysis was performed according to the manufacturer's instructions (BD Pharmingen™). Briefly, cells were incubated with BrdU (1 mM) for 1 hr, dissociated with dissociation buffer, and stained with anti-CD144 antibody. The cells were then fixed, permeabilized, and fixed once more, followed by 1 hr incubation with DNase I (200 U) at 37┌ C. After incubation with FITC-conjugated anti-BrdU antibody for 20 min at RT, the cells were stained with 7-AAD. The cells were analyzed by FACS Aria II and the data were analyzed using FlowJo software.

For another test, the system named is Flk1+ MPCs. Briefly: CM differentiation from Flk1+ MPCs in OP9 co-culture system. The test is classed as cell-based, mouse. On the procedure: EMG7 mouse ESCs which have ┌-myosin heavy chain (MHC) promoter driven enhanced green fluorescent protein (GFP) gene and OP9 cells were a generous gift from Dr. Jun K. Yamashita (Kyoto University). EMG7 ESCs were plated on a 0.1% gelatin coated 60p dish and maintained in a medium (GMEM, Invitrogen) containing 10% knockout serum, 2-mercaptoethanol (Invitrogen), sodium pyruvate (Invitrogen), non-essential amino acid and antibiotics (Invitrogen). leukemia inhibitory factor (LIF), Blasticidin (Invitrogen) and G418 (Invitrogen) were added in the medium at the time of the medium change. OP9 cells were maintained in a medium (alpha MEM, Invitrogen) containing 20% of fetal bovine serum (FBS), 2-mercaptoethanol (Invitrogen), L-glutamine (Invitrogen) and antibiotics (Invitrogen). The medium was changed every 2 days for both EMG7 ESCs and OP9 cells. For induction of Flk1+MPCs, EMG7 ESCs were cultured and plated on a 0.1% gelatin coated 100 p dish in the differentiation medium (alpha MEM, Invitrogen) with contained 10% FBS, 2-mercaptoethanol (Invitrogen), L-glutamine (Invitrogen) and antibiotics (Invitrogen) for 4.5 days (96-112 hours). The medium was changed every 2 days. At 4.5 days, differentiated EMG7 ESCs were harvested with 0.025% trypsin-EDTA and antigen recovery was performed in the differentiation medium for 30 minutes in an incubator. Then, cells were washed using phosphate buffered saline/10% FBS and attached with biotin-conjugated anti-mouse Flk1+ antibody (eBioscience) and […] MicroBeads (Miltenyi Biotec). Flk1+ MPCs were sorted by AutoMACS Pro Separator (Miltenyi Biotec). Sorted Flk1+ MPCs were plated onto the mitomycin-C (MMC) (Ag scientific) treated confluent OP9 cells at a density of 1-2×10^4 cells/cm^2 and cultured in the differentiation medium. The medium was changed every 2 days. CsA (a gift from Novartis Pharma, Korea) was treated in sorted Flk1+ MPCs on OP9 cells. CsA was dissolved in dimethyl sulfoxide (DMSO) (Sigma) and diluted 2┌ g/mL in the differentiation medium at the time of medium change. 10┌ M of Y27632 (purchased from Calbiochem) were treated in sorted Flk1+MPCs on OP9 cells and sorted MHC GFP+CMs at the time of medium change. Analysis and sorting for CMs were performed at day 10.5. We harvested differentiated Flk1+ MPCs on OP9 cells with 0.25% trypsin-EDTA or dissociation buffer (Invitrogen). Cardiac troponin-T (cTnT)+ and ┌ smooth muscle actin (SMA)+ cells were analyzed after permeabilization using Cytofix/Cytoperm solution (BD Biosciences) for 15 min. After permeabilization, the cells were incubated for 30 min with anti-mouse cTnT (NeoMarkers) monoclonal antibody. […] Data were analyzed using FlowJo Version 7.5.4 software (TreeStar).

[1] abbreviates: Y27632 10 μM plus CsA vs CsA only, day 10.5.

As for `C[C@@H](N)[C@H]1CC[C@H](C(=O)Nc2ccncc2)CC1` [Y27632], in the test with ICAM2+ ECs, the “apoptosis of ECs” value is on record as “mildly inhibited”. Besides, in the test on Flk1+ MPCs (Y27632 10 μM plus CsA 2 μg/mL), the “area of self-beating CMs” value is “strikingly increased”. The “increase of cTnT+ CMs compared to control CsA only” value with Flk1+ MPCs (Y27632 10 μM plus CsA 2 μg/mL, 6 days) is on record as roughly 1.9 fold. In the test on Flk1+ MPCs (setting [1]), the “increase of area of cTnT+ CMs” value is on record as roughly 2.3 fold and the “increase of area of αMHC GFP+ CMs” value is on record as roughly 1.7 fold.
